Measurements reported in ChEMBL document CHEMBL3272131, “Molecular connectivity. 6. Examination of the parabolic relationship between molecular connectivity and biological activity” (J Med Chem, 1976).

How the values were obtained:
Staphylococcus aureus = test: Antimicrobial activity against Staphylococcus aureus; format: functional
Clostridium perfringens = test: Antimicrobial activity against Clostridium welchii; format: functional
Pseudomonas aeruginosa = test: Antimicrobial activity against Pseudomonas aeruginosa; format: functional
Oryctolagus cuniculus = organism: Oryctolagus cuniculus; test: Induction of hypnotic activity in rabbit; format: functional
[1] = Toxicity in sheep RBC assessed as hemolysis; format: cell-based, Ovis aries; details: erythrocyte
[2] = test system: Mycobacterium tuberculosis; test: Antimicrobial activity against Mycobacterium tuberculosis; format: functional
[3] = Drug absorption in intestine (unknown origin) assessed as serosal transfer; format: ADME, tissue-based
[4] = Drug absorption in intestine (unknown origin) assessed as mucosal loss; format: ADME, tissue-based
[5] = Drug absorption in intestine (unknown origin) assessed as tissue-bound transfer; format: ADME, tissue-based
Rattus norvegicus = organism: Rattus norvegicus; test: Induction of hypnotic activity in rat; format: functional
Mus musculus = test: Induction of anesthetic activity in mouse; format: functional

SMILES: CCCCCCCCCCCCCCCCC[N+](C)(C)Cc1ccccc1
- -log(1/MIC) (Staphylococcus aureus): 5.18
- -log(1/MIC) (Clostridium perfringens): 4.7
- -log(1/MKC) (Clostridium perfringens): 4.7
- -log(1/MIC) (Pseudomonas aeruginosa): 3.57
- -log(1/MKC) (Pseudomonas aeruginosa): 3.06

SMILES: CCCC1(C(C)C)C(=O)NC(=O)NC1=O
- -log(1/MED) (Oryctolagus cuniculus): 3.63

SMILES: CCCCCCCCCC[N+](C)(C)Cc1ccccc1
- -log(1/MIC) (Staphylococcus aureus): 4.74
- -log(1/HC50) [1]: 2.95
- -log(1/MIC) (Clostridium perfringens): 3.57
- -log(1/MKC) (Clostridium perfringens): 3.57
- -log(1/MIC) (Pseudomonas aeruginosa): 2.74
- -log(1/MKC) (Pseudomonas aeruginosa): 2.41

SMILES: CCCCCOc1ncccc1N
- -log(1/MIC) [2]: 5.76

SMILES: CCCCCOC(N)=O
- log%Abs [3]: 0.57
- log%Abs [4]: 0.68
- log%Abs [5]: 0.02

SMILES: C=CCC1(CCCC)C(=O)NC(=O)NC1=O
- -log(1/MED) (Rattus norvegicus): 3.47

SMILES: CCC1(C(C)C)C(=O)NC(=O)NC1=O [PROBARBITAL]
- -log(1/MED) (Rattus norvegicus): 3.34
- -log(1/MED) (Oryctolagus cuniculus): 3.3

SMILES: CCCC1(C(C)C(C)(C)C)C(=O)NC(=O)NC1=O (centres undefined)
- -log(1/AD50) (Mus musculus): 3.29

SMILES: CCCCCCCOc1ncccc1N
- -log(1/MIC) [2]: 4.62

SMILES: C=CCC1(C(C)CC)C(=O)NC(=O)NC1=O (centres undefined) [TALBUTAL]
- -log(1/MED) (Rattus norvegicus): 3.78

SMILES: CCCCCCCCCCCCCCCCCC[N+](C)(C)Cc1ccc(Cl)cc1Cl
- -log(1/MIC) (Staphylococcus aureus): 3.3

SMILES: CCC1(c2ccccc2)C(=O)NC(=O)NC1=O [PHENOBARBITAL]
- -log(1/MED) (Oryctolagus cuniculus): 3.46

SMILES: CCCCCCCCCCCCCCCCCCC[N+](C)(C)Cc1ccccc1
- -log(1/MIC) (Staphylococcus aureus): 4.91
- -log(1/MIC) (Clostridium perfringens): 4.73
- -log(1/MKC) (Clostridium perfringens): 4.73
- -log(1/MIC) (Pseudomonas aeruginosa): 2.91
- -log(1/MKC) (Pseudomonas aeruginosa): 2.52

SMILES: CCCCOc1ccc(N)cn1
- -log(1/MIC) [2]: 5.13

SMILES: CCCCCCCC[N+](C)(C)Cc1ccc(Cl)cc1
- -log(1/MIC) (Staphylococcus aureus): 2.6

SMILES: CCCCCCCCCCCC[N+](C)(C)Cc1ccc2c(c1)OCO2
- -log(1/MIC) (Staphylococcus aureus): 4

SMILES: NC(=O)OCc1ccccc1 [BENZYL CARBAMATE]
- log%Abs [3]: 0.59
- log%Abs [4]: 0.69
- log%Abs [5]: 0.01

SMILES: CCCCCCCCCCC[N+](C)(C)Cc1ccccc1
- -log(1/MIC) (Staphylococcus aureus): 5.06
- -log(1/MIC) (Clostridium perfringens): 4.06
- -log(1/MKC) (Clostridium perfringens): 4.06
- -log(1/MIC) (Pseudomonas aeruginosa): 3.06
- -log(1/MKC) (Pseudomonas aeruginosa): 2.92

SMILES: CCCCCCCCCCCCCCCC[N+](C)(C)Cc1ccccc1 [CETALKONIUM]
- -log(1/MIC) (Staphylococcus aureus): 5.56
- -log(1/HC50) [1]: 4.79
- -log(1/MIC) (Clostridium perfringens): 5.16
- -log(1/MKC) (Clostridium perfringens): 5.16
- -log(1/MIC) (Pseudomonas aeruginosa): 3.68
- -log(1/MKC) (Pseudomonas aeruginosa): 3.3

SMILES: CCCCOc1ccncc1N
- -log(1/MIC) [2]: 5.73

SMILES: CC(C)CC1(CC(C)(C)C)C(=O)NC(=O)NC1=O
- -log(1/AD50) (Mus musculus): 3.27

SMILES: CCCCC1(C(C)C(C)(C)C)C(=O)NC(=O)NC1=O (centres undefined)
- -log(1/AD50) (Mus musculus): 3.36

SMILES: CCCCOc1ccc(N)c2ccccc12
- -log(1/MIC) [2]: 4.03

SMILES: CCCC(C)(C)OC(N)=O
- log%Abs [3]: 0.09
- log%Abs [4]: 0.26
- log%Abs [5]: -0.21

SMILES: CCCCCCOC(N)=O
- log%Abs [3]: 0.35
- log%Abs [4]: 0.5
- log%Abs [5]: -0.05

SMILES: CCCCCCCCOc1ncccc1N
- -log(1/MIC) [2]: 3.75

SMILES: CCCCCCCCCCCC[N+](C)(C)Cc1ccccc1 [BENZODODECINIUM]
- -log(1/MIC) (Staphylococcus aureus): 5.61
- -log(1/HC50) [1]: 3.82
- -log(1/MIC) (Clostridium perfringens): 4.61
- -log(1/MKC) (Clostridium perfringens): 4.61
- -log(1/MIC) (Pseudomonas aeruginosa): 3.61
- -log(1/MKC) (Pseudomonas aeruginosa): 3.45

SMILES: CCC1(CC(C)(C)C)C(=O)NC(=O)NC1=O
- -log(1/AD50) (Mus musculus): 2.91

SMILES: CCCCCC1(CC(C)(C)C)C(=O)NC(=O)NC1=O
- -log(1/AD50) (Mus musculus): 3.32

SMILES: CCCCCCCCOC(N)=O
- log%Abs [3]: -0.43
- log%Abs [4]: -0.19
- log%Abs [5]: -0.57

SMILES: C=CCC1(C(C)C(C)(C)C)C(=O)NC(=O)NC1=O (centres undefined)
- -log(1/AD50) (Mus musculus): 3.39

SMILES: CCCC1(CC(C)(C)C)C(=O)NC(=O)NC1=O
- -log(1/AD50) (Mus musculus): 3.04

SMILES: CCC1(C(C)C(C)(C)C)C(=O)NC(=O)NC1=O (centres undefined)
- -log(1/AD50) (Mus musculus): 3.15

SMILES: CCCCC1(CC)C(=O)NC(=O)NC1=O [BUTETHAL]
- -log(1/MED) (Rattus norvegicus): 3.53

SMILES: CCCCC1(CC(C)(C)C)C(=O)NC(=O)NC1=O
- -log(1/AD50) (Mus musculus): 3.33

SMILES: CCCCCCCCCCCCCC[N+](C)(C)Cc1ccccc1 [MIRISTALKONIUM ION]
- -log(1/MIC) (Staphylococcus aureus): 5.82
- -log(1/HC50) [1]: 4.4
- -log(1/MIC) (Clostridium perfringens): 5.12
- -log(1/MKC) (Clostridium perfringens): 5.12
- -log(1/MIC) (Pseudomonas aeruginosa): 3.65
- -log(1/MKC) (Pseudomonas aeruginosa): 3.96

SMILES: CCCCOC(N)=O
- log%Abs [3]: 0.82
- log%Abs [4]: 0.9
- log%Abs [5]: 0.1

SMILES: CCCCCCOc1ccc(N)cn1
- -log(1/MIC) [2]: 5.49

SMILES: CCC1(CC)C(=O)NC(=O)NC1=O [BARBITAL]
- -log(1/MED) (Rattus norvegicus): 2.91

SMILES: C=CCC1(CC)C(=O)NC(=O)NC1=O [ETALLOBARBITAL]
- -log(1/MED) (Rattus norvegicus): 3.28

SMILES: CCCC1(CCC(C)C)C(=O)NC(=O)NC1=O
- -log(1/MED) (Oryctolagus cuniculus): 3.48

SMILES: CCCCCCCCCCCCCCCCCC[N+](C)(C)Cc1ccccc1
- -log(1/MIC) (Staphylococcus aureus): 5.19
- -log(1/HC50) [1]: 4.52
- -log(1/MIC) (Clostridium perfringens): 4.71
- -log(1/MKC) (Clostridium perfringens): 4.71
- -log(1/MKC) (Pseudomonas aeruginosa): 2.63

SMILES: C=CCC1(C(C)C)C(=O)NC(=O)NC1=O [APROBARBITAL]
- -log(1/MED) (Rattus norvegicus): 3.6

SMILES: CCCCCCCCCC[N+](C)(C)Cc1ccc(Cl)cc1
- -log(1/MIC) (Staphylococcus aureus): 3.6

SMILES: COc1ccc(N)cc1
- -log(1/MIC) [2]: 3.39

SMILES: CC(C(C)(C)C)C1(C)C(=O)NC(=O)NC1=O (centres undefined)
- -log(1/AD50) (Mus musculus): 2.64

SMILES: CCOc1ccc(N)cc1
- -log(1/MIC) [2]: 4.44

SMILES: COC(N)=O [METHYL CARBAMATE]
- log%Abs [3]: 0.45
- log%Abs [4]: 0.52
- log%Abs [5]: -0.38

SMILES: CCOC(N)=O [URETHANE]
- log%Abs [3]: 0.53
- log%Abs [4]: 0.6
- log%Abs [5]: -0.22

SMILES: CCC1(CCC(C)C)C(=O)NC(=O)NC1=O [AMOBARBITAL]
- -log(1/MED) (Rattus norvegicus): 3.59

SMILES: C=CCC1(CC(C)C)C(=O)NC(=O)NC1=O [BUTALBITAL]
- -log(1/MED) (Rattus norvegicus): 3.63

SMILES: CCCOc1ncccc1N
- -log(1/MIC) [2]: 4.79

SMILES: C=CCC1(CC=C)C(=O)NC(=O)NC1=O [ALLOBARBITAL]
- -log(1/MED) (Rattus norvegicus): 3.54

SMILES: CCC(C)(C)OC(N)=O
- log%Abs [3]: 0.68
- log%Abs [4]: 0.77
- log%Abs [5]: 0.04

SMILES: CCCCCCOc1ccncc1N
- -log(1/MIC) [2]: 5.8

SMILES: C=CCC1(CCC(C)C)C(=O)NC(=O)NC1=O
- -log(1/MED) (Rattus norvegicus): 3.45

SMILES: CCCCC1(C(C)C)C(=O)NC(=O)NC1=O
- -log(1/MED) (Rattus norvegicus): 3.49

SMILES: CCCCCCCCOc1ccc(N)cc1
- -log(1/MIC) [2]: 3.44

SMILES: CCCCCCCCCCOc1ncccc1N
- -log(1/MIC) [2]: 3.19

SMILES: CCCCCCCCCCCCCCCC[N+](C)(C)Cc1ccc2c(c1)OCO2
- -log(1/MIC) (Staphylococcus aureus): 4.2

SMILES: CCCCCCCCCCCCCCC[N+](C)(C)Cc1ccccc1
- -log(1/MIC) (Staphylococcus aureus): 5.84
- -log(1/MIC) (Clostridium perfringens): 5.14
- -log(1/MKC) (Clostridium perfringens): 5.14
- -log(1/MIC) (Pseudomonas aeruginosa): 3.84
- -log(1/MKC) (Pseudomonas aeruginosa): 3.74

SMILES: CCCC1(CCC)C(=O)NC(=O)NC1=O
- -log(1/MED) (Oryctolagus cuniculus): 3.55

SMILES: COc1ncccc1N
- -log(1/MIC) [2]: 2.59

SMILES: CCCCCOc1ccc(N)cc1
- -log(1/MIC) [2]: 5.45

SMILES: CC(C)COC(N)=O
- log%Abs [3]: 0.75
- log%Abs [4]: 0.83
- log%Abs [5]: 0.04

SMILES: CC(C)COc1ncccc1N
- -log(1/MIC) [2]: 4.52

SMILES: CCOc1ncccc1N
- -log(1/MIC) [2]: 3.54

SMILES: CCC1(CC(C)C)C(=O)NC(=O)NC1=O
- -log(1/MED) (Oryctolagus cuniculus): 3.63

SMILES: CC(C)(C)CC1(C)C(=O)NC(=O)NC1=O
- -log(1/AD50) (Mus musculus): 2.12

SMILES: CCCCCCOc1ccc(N)cc1
- -log(1/MIC) [2]: 5.8

SMILES: CC(C)(C)OC(N)=O
- log%Abs [3]: 0.65
- log%Abs [4]: 0.73
- log%Abs [5]: 0

SMILES: CCCCOc1ccc(N)cc1
- -log(1/MIC) [2]: 5.42

SMILES: CC(C)CCC1(CC(C)(C)C)C(=O)NC(=O)NC1=O
- -log(1/AD50) (Mus musculus): 3.26

SMILES: CCCOC(N)=O
- log%Abs [3]: 0.71
- log%Abs [4]: 0.78
- log%Abs [5]: -0.04

SMILES: C=CCC1(CCC)C(=O)NC(=O)NC1=O
- -log(1/MED) (Rattus norvegicus): 3.47

SMILES: CCCCCCCOC(N)=O
- log%Abs [3]: -0.17
- log%Abs [4]: 0.08
- log%Abs [5]: -0.28

SMILES: CCCCCCCCCCCCC[N+](C)(C)Cc1ccccc1 [BENZALKONIUM]
- -log(1/MIC) (Staphylococcus aureus): 5.8
- -log(1/MIC) (Clostridium perfringens): 5.1
- -log(1/MKC) (Clostridium perfringens): 5.1
- -log(1/MIC) (Pseudomonas aeruginosa): 3.8
- -log(1/MKC) (Pseudomonas aeruginosa): 3.85

SMILES: CCCCC1(CCCC)C(=O)NC(=O)NC1=O
- -log(1/MED) (Rattus norvegicus): 3.08

SMILES: CCCCCCCC[N+](C)(C)Cc1ccccc1
- -log(1/MIC) (Staphylococcus aureus): 3.69
- -log(1/HC50) [1]: 1.52
- -log(1/MIC) (Clostridium perfringens): 3
- -log(1/MKC) (Clostridium perfringens): 2.69
- -log(1/MKC) (Pseudomonas aeruginosa): 1.68
